Patent publication US20260209288A1, “PEPTIDES FOR REGULATING GLUCOSE” (Cooke Aquaculture Inc., priority 2019, published 2026)

What was measured:
L6 skeletal muscle cells = assay: Glucose uptake experiments in L6 skeletal muscle cells (2-deoxy-[3H]glucose); assay type: cell-based
Description: Glucose uptake experiments were conducted as described by Roblet 2013. L6 skeletal muscle cells were grown in an a-minimum essential medium (a-MEM) containing 2% (v/v) fetal bovine serum (GBS) in an atmosphere of 5% CO2 at 37° C. [Tremblay 2001]. Cells were plated at 600,000 cells/plate in 24-well plates to obtain about 25,000 cells/mL. The cells were incubated 7 days, to reach their complete differentiation to myotubes (7 days post-plating). L6 myotubes were deprived of GBS for 3 h, with a a-MEM containing 0% of GBS. Then, the cells were incubated for 75 minutes, with 10 μl of EDUF fractions at a concentration of 1 μg/mL and 1 ng/ml. Finally, insulin was added (10 μl at 1.10-5M) for 45 min. Experiments were repeated 9 times, and each repetition was run in triplicate. After experimental treatments, cells were rinsed once with 37° C. HEPES-buffered solution (20 mM HEPES, pH 7.4, 140 mM NaCl, 5 mM KCl, 2.5 mM MgSO4, and 1 mM CaCl2)) and were subsequently incubated in HEPES-buffered solution containing 10 µM 2-deoxyglucose and 0.3 μCi/mL 2-deoxy-[3H] glucose for 8 minutes. Then, the cells were rinsed three times with 0.9% NaCl solution at 4° C. and then frozen. The next day, the cells were disrupted by adding 500 μl of a 50 mM NaOH solution. The radioactivity was determined by scintillation.

FAO rat hepatocytes = assay: Hepatic glucose production experiments in FAO cells; assay type: cell-based
Description: Hepatic glucose production experiments were conducted as described by Chevrier et al, (2015). Briefly, FAO rat hepatocytes were grown and maintained in monolayer culture in Roswell Park Memorial Institute medium (RPMI) containing 10% FBS in an atmosphere of 5% CO2 at 37° C. Cells were plated at 4.10^6 cells/plate. […] […] Glucose production was measured in the medium by using the Amplex Red Glucose/Glucose Oxidase Assay kit (Invitrogen). Results shown are the mean response of at least 6 independent experiments realized in triplicate.

IPVE: synthetic peptide of amino acid sequence IPVE, identified from salmon protein hydrolysate; increases glucose uptake
glucose uptake, dose-response effect (L6 skeletal muscle cells; IPVE at 1 ng/ml): increase the bioactivity | glucose uptake, dose-response effect (L6 skeletal muscle cells; IPVE at 10 ng/ml): increase the bioactivity | Bioactivity (L6 skeletal muscle cells; Table 1, identified peptides, glucose uptake): Increases glucose uptake | nature of the glucose uptake response (L6 skeletal muscle cells; concentrations from 1 μg/mL to 10 μg/mL as printed): dose-dependent | glucose uptake, dose-response effect (L6 skeletal muscle cells; highest concentrations tested (>10 ng/ml)): no effect on the glucose uptake | enhancement of the glucose uptake (L6 skeletal muscle cells; in the presence of insulin, compared to the insulin control (P=0.016)): 17% | glucose uptake, dose-response effect (L6 skeletal muscle cells; lowest concentrations tested (<100 μg/mL)): no effect on the glucose uptake

VAPEEHPTL
Bioactivity (FAO rat hepatocytes; Table 1, identified peptides, hepatic glucose production): Decreases hepatic glucose production | decrease in HGP (hepatic glucose production) (FAO rat hepatocytes; basal condition): 20% | decrease of the HGP (hepatic glucose production) (FAO rat hepatocytes; insulin condition: peptide incubated with insulin at 0.1 nm, compared to insulin at 0.1 nm): 18%
